Patent publication US9751896B1, “Asymmetric 7-N isatin dimer Schiff base compounds with antitumor activities and a method of preparing the same” (SHAANXI UNIVERSITY OF SCIENCE AND TECHNOLOGY, priority 2016, dated 2017)

Legend:
[1] = test system: human hepatoma cells (HepG2); experiment: Tumor cell proliferation inhibition test (MTT), HepG2; type: cell-based; settings: 48 hours treatment, read-out: Half Inhibitory Concentration IC50 HepG2
Description: (§1) The compounds of the present invention were subjected to tumor cell proliferation inhibition test, and conventional MTT method was used.
(§2) Cell lines: human hepatoma cells (HepG2), human lung cancer cells (A-549), human gastric cancer cells (SGC-7901). The culture medium was DMEM+15% NBS+double antibody.
(§3) Sample solution preparation: after dissolving with DMSO (Merck), PBS (−) was added to obtain 100 μmol/L solution or homogeneous suspension. The solution was diluted with PBS (−) in DMSO to a final concentration of 0.1, 1, 10, 20, 40, 60, 80, 100 μmol/L.
(§4) Antitumor drug cytarabine (Ara-C) was used as control solution, prepared under the same condition.
(§5) Cell culture: adherent growth Tumor cells were cultured in 1640 medium containing 10% inactivated neonatal bovine serum and penicillin, streptomycin (1 million U/L), placed in carbon dioxide incubator at 37° C., 5% CO2, and saturated humidity. Cells were treated serially passaged 2-3 times. The first culture was washed with PBS 2 times, and digested with trypsin. Fresh culture medium was added evenly, cells were adjusted to a appropriate concentration and transferred into a new culture flask. Cell in an exponential phase were chosen for the tests.
(§6) MTT Assay for Cell Viability and IC50 Determination:
(§7) Experimental Principle: Living cells mitochondria in the dehydrogenase can reduce yellow MTT to water-insoluble blue-violet product MT (MTT formazan), deposited in the cells. The amount of production is proportional to the number of living cells. […] DMSO can dissolve blue violet crystals, and the color depth is proportional to the amount contained, so the absorbance measured by the microplate reader can reflect the cell viability.
(§8) Methods: The exponential phase cells were digested and counted and seeded in 96-well plates at a density of 2×10^4/mL at 100 μl per well. After 24 hours of incubation, the cells to be tested were treated with 0.1, 1, 10, 20, 40, 60, 80, 100 μmol/L of the compounds. Each experimental group had 5 wells in each concentration, and the culture medium containing 0.4% DMSO was used as control. After 48 hours, the supernatant was discarded, and 100 μl of MTT ((2-(4,5-dimethyl-2-thiazolyl)-3,5-diphenyl-2H-[…]) (1 mg/mL) was added to each well. After another 4 hours, the supernatant was discarded, and 100 μl of DMSO was added to each well. After mixing, the absorbance was measured at 570 nm using a microplate reader. An IC50 calculation software was used to determine the half inhibitory concentration (IC50).

[2] = test system: human lung cancer cells (A-549); experiment: Tumor cell proliferation inhibition test (MTT), A-549; type: cell-based; settings: A549 cells, 48 hours treatment, read-out: Half Inhibitory Concentration IC50 A549
Description: as §1, §2, §3, §4, §5, §6, §7, §8

[3] = test system: human gastric cancer cells (SGC-7901); experiment: Tumor cell proliferation inhibition test (MTT), SGC-7901; type: cell-based; settings: SGC-7901 cells, 48 hours treatment, read-out: Half Inhibitory Concentration IC50 SGC-7901
Description: as §1, §2, §3, §4, §5, §6, §7, §8

Row | IC50 [1] [µM] | IC50 [2] [µM] | IC50 [3] [µM] | melting point [°C] | Structure (SMILES)
1 | > 100 | > 100 | > 100 | 191.9 | CCN1C(=O)/C(=N\N=C2/C(=O)N(C(C)C)c3ncccc32)c2cccnc21 [Compound 6]
2 | 28.7 ± 0.4 |  | 46.9 ± 0.85 | 195.6 | CCN1C(=O)/C(=N\N=C2/C(=O)N(C)c3ncccc32)c2cccnc21 [Compound 5]
3 | 98.6 ± 3.23 | > 100 | > 100 | 182.5 | CC(C)N1C(=O)/C(=N\N=C2/C(=O)N(C)c3ncccc32)c2cccnc21 [Compound 7]

The remaining lines, values behind:

Row | Structure (SMILES) | IC50 [1] [µM] | IC50 [2] [µM] | IC50 [3] [µM] | melting point [°C]
4 | CN1C(=O)/C(=N\N=C2/C(=O)N(Cc3ccccc3)c3ncccc32)c2cccnc21 [Compound 4] | > 100 | 85.8 ± 2.96 | > 100 | 214.3
5 | Cc1cnc2c(c1)/C(=N/N=C1\C(=O)Nc3ncc(Cl)cc31)C(=O)N2 [Compound 1] | > 100 | 55.8 ± 2.67 | 42.3 ± 1.89 | 174.5
6 | Nc1ccn([C@@H]2O[C@H](CO)[C@@H](O)[C@@H]2O)c(=O)n1 [Ara-C, cytarabine, reference compound] | 18.3 ± 0.28 | 14.9 ± 0.64 | 18.2 ± 0.39 | 
